Reference: paper PMC9757750 (Science Advances, 2022)

Target: LegA15 (Legionella pneumophila, UniProt Q5ZSR1)
Assay: biochemical

Sequence of LegA15 (Q5ZSR1 1-471): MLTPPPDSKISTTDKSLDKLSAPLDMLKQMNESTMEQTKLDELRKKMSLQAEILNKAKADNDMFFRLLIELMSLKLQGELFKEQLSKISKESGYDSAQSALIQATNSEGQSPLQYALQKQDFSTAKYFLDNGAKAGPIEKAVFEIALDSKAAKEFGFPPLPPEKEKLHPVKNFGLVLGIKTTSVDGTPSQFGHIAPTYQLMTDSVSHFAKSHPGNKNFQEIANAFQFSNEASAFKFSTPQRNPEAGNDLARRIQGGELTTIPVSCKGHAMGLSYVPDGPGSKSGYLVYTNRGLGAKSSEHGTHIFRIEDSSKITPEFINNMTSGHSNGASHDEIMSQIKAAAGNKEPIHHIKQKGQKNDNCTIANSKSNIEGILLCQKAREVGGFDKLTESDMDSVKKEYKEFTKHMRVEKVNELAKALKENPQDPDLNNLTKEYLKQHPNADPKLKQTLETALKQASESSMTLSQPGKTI

| SMILES | Kd [µM] |
| --- | --- |
| Nc1nc2c(ncn2[C@@H]2O[C@H](COP(=O)(O)OP(=O)(O)O)[C@@H](O)[C@H]2O)c(=O)[nH]1 [GDP] | 20.5 |
| Nc1nc2c(ncn2[C@@H]2O[C@H](COP(=O)(O)OP(=O)(O)OP(=O)(O)O)[C@@H](O)[C@H]2O)c(=O)[nH]1 [GTP] | 1.38 |
